# Read-outs that look alike come from different tables or passages of the source.
# Columns and labels:
# PAD4 [1] = target: T1, PAD4 (Homo sapiens, UniProt Q9UM07); assay: PAD4 inhibition/inactivation, residual activity measured with BAEE; assay type: biochemical
# PAD4 [2] = target: T1, PAD4; assay: fluopol-ABPP HTS
# PAD4 [3] = target: T1, PAD4; assay: gel-based ABPP secondary screen
# HL-60 granulocytes = assay: histone H3 citrullination Western blot in HL-60 granulocytes; assay type: cell-based; conditions: anti-citrulline histone H3 Western blot, 1, 10, or 100 nM, dose dependent
# MCF-7 cells = assay: histone H3 citrullination Western blot in MCF-7 cells; assay type: cell-based; conditions: MCF7 cells; anti-citrulline histone H3 Western blot; 1, 10, or 100 nM, dose dependent
# PAD2 [4] = target: T2, PAD2 (Homo sapiens, UniProt Q9Y2J8); conditions: PAD4 over PAD2, relative values of kinact/KI
# PAD2 [5] = target: T2, PAD2; assay: biochemical
# PAD3 = target: T3, PAD3 (Homo sapiens, UniProt Q9ULW8); assay: biochemical
# T3 sequence (Q9ULW8 1-664): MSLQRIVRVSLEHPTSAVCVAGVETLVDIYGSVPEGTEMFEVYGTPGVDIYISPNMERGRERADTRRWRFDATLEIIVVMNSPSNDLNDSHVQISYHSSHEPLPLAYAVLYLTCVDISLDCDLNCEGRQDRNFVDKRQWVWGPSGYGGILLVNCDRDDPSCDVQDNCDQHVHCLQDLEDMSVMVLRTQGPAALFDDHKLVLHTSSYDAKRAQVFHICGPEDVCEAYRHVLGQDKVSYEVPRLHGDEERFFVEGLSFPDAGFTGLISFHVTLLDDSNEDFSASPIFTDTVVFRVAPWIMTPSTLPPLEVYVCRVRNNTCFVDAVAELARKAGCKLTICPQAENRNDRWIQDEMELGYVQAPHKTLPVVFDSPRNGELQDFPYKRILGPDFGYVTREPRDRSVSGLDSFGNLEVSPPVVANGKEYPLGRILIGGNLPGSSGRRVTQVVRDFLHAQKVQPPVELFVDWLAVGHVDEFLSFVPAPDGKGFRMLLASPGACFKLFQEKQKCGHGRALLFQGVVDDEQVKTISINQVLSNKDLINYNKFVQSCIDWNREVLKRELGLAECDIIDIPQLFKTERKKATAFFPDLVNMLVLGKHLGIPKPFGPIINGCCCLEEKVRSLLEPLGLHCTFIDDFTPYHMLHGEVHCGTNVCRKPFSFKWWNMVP
# PAD1 = target: T4, PAD1 (Homo sapiens, UniProt Q9ULC6); assay: PAD1 inhibition/inactivation, residual activity measured with BAEE
# T4 sequence (Q9ULC6 1-663): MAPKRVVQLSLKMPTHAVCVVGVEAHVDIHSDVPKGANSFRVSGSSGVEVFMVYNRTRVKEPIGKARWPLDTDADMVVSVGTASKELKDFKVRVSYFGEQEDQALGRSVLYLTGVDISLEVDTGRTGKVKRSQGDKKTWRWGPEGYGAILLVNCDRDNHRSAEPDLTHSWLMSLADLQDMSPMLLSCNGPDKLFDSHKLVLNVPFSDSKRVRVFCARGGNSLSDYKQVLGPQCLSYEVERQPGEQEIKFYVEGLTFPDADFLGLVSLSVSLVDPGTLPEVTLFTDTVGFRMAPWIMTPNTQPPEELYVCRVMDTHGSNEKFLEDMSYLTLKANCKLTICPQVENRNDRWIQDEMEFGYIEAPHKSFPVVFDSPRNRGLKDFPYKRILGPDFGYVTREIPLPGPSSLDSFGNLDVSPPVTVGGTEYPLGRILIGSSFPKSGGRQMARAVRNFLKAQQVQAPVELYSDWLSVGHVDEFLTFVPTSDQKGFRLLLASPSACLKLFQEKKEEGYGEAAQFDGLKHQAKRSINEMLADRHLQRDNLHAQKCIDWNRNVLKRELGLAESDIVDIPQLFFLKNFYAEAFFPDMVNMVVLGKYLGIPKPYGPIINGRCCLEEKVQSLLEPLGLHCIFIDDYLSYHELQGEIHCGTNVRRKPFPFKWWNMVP
# T1 sequence (Q9UM07 whole entry): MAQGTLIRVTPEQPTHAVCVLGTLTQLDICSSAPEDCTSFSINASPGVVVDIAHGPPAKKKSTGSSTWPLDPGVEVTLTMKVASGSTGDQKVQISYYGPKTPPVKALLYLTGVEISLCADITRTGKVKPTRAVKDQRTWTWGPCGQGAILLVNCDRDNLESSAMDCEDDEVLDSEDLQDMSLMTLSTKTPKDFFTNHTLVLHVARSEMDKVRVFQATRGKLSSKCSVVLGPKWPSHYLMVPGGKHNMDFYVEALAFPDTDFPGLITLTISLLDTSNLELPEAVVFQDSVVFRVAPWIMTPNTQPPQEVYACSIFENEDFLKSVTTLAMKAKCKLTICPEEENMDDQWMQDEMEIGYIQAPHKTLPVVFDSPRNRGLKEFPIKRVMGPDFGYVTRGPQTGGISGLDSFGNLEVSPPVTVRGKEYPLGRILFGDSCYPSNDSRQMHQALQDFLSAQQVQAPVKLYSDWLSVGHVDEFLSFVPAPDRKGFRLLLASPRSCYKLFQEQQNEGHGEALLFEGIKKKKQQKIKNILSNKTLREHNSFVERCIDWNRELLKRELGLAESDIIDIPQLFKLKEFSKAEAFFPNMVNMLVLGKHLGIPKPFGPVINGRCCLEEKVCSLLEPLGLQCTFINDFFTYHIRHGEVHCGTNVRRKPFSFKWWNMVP
# T2 sequence (Q9Y2J8 whole entry): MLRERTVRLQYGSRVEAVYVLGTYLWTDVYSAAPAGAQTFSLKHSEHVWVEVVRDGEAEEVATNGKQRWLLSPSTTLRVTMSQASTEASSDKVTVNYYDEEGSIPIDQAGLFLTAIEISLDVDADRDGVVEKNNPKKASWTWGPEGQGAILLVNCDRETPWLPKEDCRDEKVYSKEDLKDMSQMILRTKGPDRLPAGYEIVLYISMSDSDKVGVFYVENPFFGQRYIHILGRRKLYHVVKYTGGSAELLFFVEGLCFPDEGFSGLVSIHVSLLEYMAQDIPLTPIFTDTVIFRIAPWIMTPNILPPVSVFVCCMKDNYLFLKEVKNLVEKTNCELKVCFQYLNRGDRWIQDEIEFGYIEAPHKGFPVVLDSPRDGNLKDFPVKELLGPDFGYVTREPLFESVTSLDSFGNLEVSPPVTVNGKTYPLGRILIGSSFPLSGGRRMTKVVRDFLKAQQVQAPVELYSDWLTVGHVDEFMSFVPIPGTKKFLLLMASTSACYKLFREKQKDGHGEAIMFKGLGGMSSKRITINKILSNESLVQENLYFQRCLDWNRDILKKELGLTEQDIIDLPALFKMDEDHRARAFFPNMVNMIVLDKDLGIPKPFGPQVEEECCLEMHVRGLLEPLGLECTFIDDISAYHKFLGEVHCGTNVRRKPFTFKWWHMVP
compound,measurement,setting,value
"Cc1ccc(S(=O)(=O)N[C@@H](Cc2ccccc2)C(=O)CCl)cc1 [NIH5, tosyl phenylalanyl chloromethyl ketone]",IC50,"PAD4 [1]; read-out: IC50 for PAD4, Table 1, hits of the HTS",13 ± 2 µM
same,% Inhibition (library screen),"PAD4 [2]; 5 μM compound final, 2 μM PAD4, 75 nM RFA, 300 min",39.7%
same,% Inhibition (Gel based ABPP),"PAD4 [3]; 10 μM final, inhibition of RFA labeling of PAD4",12.9%
"COC1=C(N)C(=O)c2nc(-c3nc(C(=O)O)c(C)c(-c4ccc(OC)c(OC)c4O)c3N)ccc2C1=O [NIH6, streptonigrin]",IC50,PAD4 [1],1.87 ± 0.24 µM
same,Ki,PAD4 [1],8.5 ± 4.3 µM
same,PAD4 activity recovered after dialysis (reversibility),"PAD4 [1]; incubated with PAD4 for 30 min, dialyzed overnight (~20 h)",no PAD4 activity was recovered
same,concentration that reduced levels of citrullinated histone H3,HL-60 granulocytes,≤ 1 nM
same,concentration that reduced levels of citrullinated histone H3,MCF-7 cells,≤ 1 nM
same,Fold selectivity,PAD2 [4],37 fold
same,Ki,PAD2 [5],17 ± 5.8 µM
same,Ki,PAD3,49 ± 34 µM
same,inhibition at 5 µM,PAD4 [2]; read-out: % Inhibition (library screen),92.5%
same,inhibition at 10 µM,PAD4 [3]; read-out: % Inhibition (Gel based ABPP),93.9%
same,Ki,PAD1,11 ± 7 µM

# — paper PMC2943038 (Chemical communications (Cambridge, England), 2010)
